Laboratory results taken from patent publication US9267129B2, “Compositions and methods for conferring herbicide resistance” (BEN-GURION UNIVERSITY OF THE NEGEV RESEARCH AND DEVELOPMENT …, priority 2011, dated 2016).

Columns and labels:
[1] = target: T1, PiAHAS wild-type (Parietochloris incisa (Lobosphaera incisa), UniProt I3VJH2); experiment: PiAHAS in vitro enzyme assay, inhibition by SMM (wild type); type: biochemical; conditions: wild-type AHAS; pyruvate 100 mM; 37° C., pH 7.6
T1 sequence (I3VJH2 1-707 D350G/R415C): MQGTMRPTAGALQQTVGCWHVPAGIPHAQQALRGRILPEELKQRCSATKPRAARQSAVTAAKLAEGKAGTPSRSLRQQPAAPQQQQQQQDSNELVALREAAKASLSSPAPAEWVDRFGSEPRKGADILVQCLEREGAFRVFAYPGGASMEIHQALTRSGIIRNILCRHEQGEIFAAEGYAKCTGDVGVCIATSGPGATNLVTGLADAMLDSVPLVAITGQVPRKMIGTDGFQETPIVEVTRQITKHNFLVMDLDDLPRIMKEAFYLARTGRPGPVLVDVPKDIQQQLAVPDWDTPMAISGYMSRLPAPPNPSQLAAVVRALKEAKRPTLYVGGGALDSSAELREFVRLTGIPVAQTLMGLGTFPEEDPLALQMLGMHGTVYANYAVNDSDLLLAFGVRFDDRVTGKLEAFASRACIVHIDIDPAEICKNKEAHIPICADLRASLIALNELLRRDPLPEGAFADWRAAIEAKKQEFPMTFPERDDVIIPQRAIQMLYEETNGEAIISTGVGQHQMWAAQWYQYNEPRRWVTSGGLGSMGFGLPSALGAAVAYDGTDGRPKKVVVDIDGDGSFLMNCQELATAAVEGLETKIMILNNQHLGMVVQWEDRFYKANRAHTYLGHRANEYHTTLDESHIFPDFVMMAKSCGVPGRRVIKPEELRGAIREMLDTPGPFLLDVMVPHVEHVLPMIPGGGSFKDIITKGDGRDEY
Procedure: (§1) To overexpress the hexahistidine (6xHis)-tagged PiAHAS genes in E. coli strain JM109, plasmids pQE-WT and pQE-MUT were used. These plasmids were constructed by inserting the BamHI-SalI fragment containing the cloned PiAHAS wt and mutant genes into plasmid pQE30 (Qiagen, Hilden, Germany). These plasmids express PiAHAS fused at its N-terminus to the pQE30 6xHis leader. pQE-WT and pQE-MUT were transformed into E. coli for expression. […] The AHAS catalytic activity was determined as previously described (Bar-Ilan A et al. Binding and activation of thiamin diphosphate in acetohydroxyacid synthase. Biochemistry (N.Y.) 2001, 40, 11946-11954). […] Km for pyruvate and Ki for SMM were determined by varying the concentration of the factor in question. Protein concentration was determined by the dye-binding method of Bradford (Bradford MM. A rapid and sensitive method for the quantitation of microgram quantities of protein utilizing the principle of protein-dye binding. Anal. Biochem. 1976, 72, 248-254), with bovine serum albumin as standard. […]
(§2) The Ki was determined to be >30×106, 7 orders of magnitude higher than that of the wild type.

[2] = target: T2, PiAHAS wild-type (Parietochloris incisa (Lobosphaera incisa), UniProt I3VJH2, D350G/R415C); experiment: as above; type: biochemical; conditions: wild type; very low concentration of SMM
T2 sequence (I3VJH2 1-707 D350G/R415C): T1 sequence (I3VJH2 1-707 D350G/R415C)
Procedure: as §1, §2

Compound: COC(=O)c1ccccc1S(=O)(=O)NC(=O)Nc1nc(C)cc(C)n1 [SMM, sulfometuron methyl]
- Ki [1]: 150 nM
- inhibition of enzyme by SMM [2]: strongly inhibited
